Molecules are shown by their SMILES.

The results in this text go back to patent US20070010671A1, “Novel quinazoline derivatives and methods of treatment related to the use thereof” (priority 2003, published 2007).

The target in this test is MCH receptor (Homo sapiens, UniProt Q99705). Kind of test: High throughput functional screening FLIPR/FDSS6000: inhibition of MCH-evoked intracellular Ca2+ changes. It is filed as cell-based. Particulars: class by percent of control at 10^-7 M or IC50. A digest of the protocol:
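Cells expressing a non-endogenous, constitutively active MCH receptor were loaded with 4 μM Fluo4-AM (with probenecid) for 1 hr at 37° C. Test compound was preincubated 3 min at 37° C before 50 nM MCH was added. The [Ca2+]i transient was read at Ex 488/Em 530 nm for 290 s.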

With `CN(C)c1nc(N[C@H]2CC[C@@H](CNC(=O)Nc3ccccc3Cl)CC2)nc2ccccc12` [compound 419, N-(2-chlorophenyl)-N′-[(cis-4-{[4-(dimethylamino)quinazolin-2-yl]amino}cyclohexyl)methyl]urea], the class is 1 (Class 1: The value of percent of control at 10^−7 M was less than 40% or the value of IC50 was less than 50 nM.).
As for `Cc1cccc(C)c1NC(=O)NC[C@H]1CC[C@@H](Nc2nc(N(C)C)c3ccccc3n2)CC1` [compound 420, N-[(cis-4-{[4-(dimethylamino)quinazolin-2-yl]amino}cyclohexyl)methyl]-N′-(2,6-dimethylphenyl)urea], the class was 1 (Class 1: The value of percent of control at 10^−7 M was less than 40% or the value of IC50 was less than 50 nM.).
The value for `CN(C)c1nc(N[C@H]2CC[C@@H](CNC(=O)Nc3ccc(Cl)c(Cl)c3)CC2)nc2ccccc12` [compound 421, N-(3,4-dichlorophenyl)-N′-[(cis-4-{[4-(dimethylamino)quinazolin-2-yl]amino}cyclohexyl)methyl]urea] was 2 (Class 2: The value of percent of control at 10^−7 M was from 40% to 60% or the value of IC50 was from 50 nM to 200 nM.).
Turning to `CN(C)c1nc(N[C@H]2CC[C@@H](CNC(=O)Nc3ccc(F)cc3F)CC2)nc2ccccc12` [compound 422, N-(2,4-difluorophenyl)-N′-[(cis-4-{[4-(dimethylamino)quinazolin-2-yl]amino}cyclohexyl)methyl]urea], the class is recorded as 1 (Class 1: The value of percent of control at 10^−7 M was less than 40% or the value of IC50 was less than 50 nM.).
The value for `CN(C)c1nc(N[C@H]2CC[C@@H](CNC(=O)Nc3ccc(Cl)cc3Cl)CC2)nc2ccccc12` [compound 423, N-(2,4-dichlorophenyl)-N′-[(cis-4-{[4-(dimethylamino)quinazolin-2-yl]amino}cyclohexyl)methyl]urea] was 2 (Class 2: The value of percent of control at 10^−7 M was from 40% to 60% or the value of IC50 was from 50 nM to 200 nM.); that for `CN(C)c1nc(N[C@H]2CC[C@@H](CNC(=O)Nc3cc(Cl)cc(Cl)c3)CC2)nc2ccccc12` [compound 424, N-(3,5-dichlorophenyl)-N′-[(cis-4-{[4-(dimethylamino)quinazolin-2-yl]amino}cyclohexyl)methyl]urea] was 1 (Class 1: The value of percent of control at 10^−7 M was less than 40% or the value of IC50 was less than 50 nM.); that for `CN(C)c1nc(N[C@H]2CC[C@@H](CNC(=O)Nc3cccc(Cl)c3Cl)CC2)nc2ccccc12` [compound 425, N-(2,3-dichlorophenyl)-N′-[(cis-4-{[4-(dimethylamino)quinazolin-2-yl]amino}cyclohexyl)methyl]urea] was 1 (Class 1: The value of percent of control at 10^−7 M was less than 40% or the value of IC50 was less than 50 nM.).
The value for `CN(C)c1nc(N[C@H]2CC[C@@H](CNC(=O)Nc3c(F)cccc3F)CC2)nc2ccccc12` [compound 426, N-(2,6-difluorophenyl)-N′-[(cis-4-{[4-(dimethylamino)quinazolin-2-yl]amino}cyclohexyl)methyl]urea] was 2 (Class 2: The value of percent of control at 10^−7 M was from 40% to 60% or the value of IC50 was from 50 nM to 200 nM.).
The value for `CN(C)c1nc(N[C@H]2CC[C@@H](CNC(=O)Nc3cc(Cl)ccc3Cl)CC2)nc2ccccc12` [compound 427] was 3 (Class 3: The value of percent of control at 10^−7 M was more than 60% or the value of IC50 was more than 200 nM.).
For the molecule `Cc1cccc(NC(=O)NC[C@H]2CC[C@@H](Nc3nc(N(C)C)c4ccccc4n3)CC2)c1C` [compound 428, N-[(cis-4-{[4-(dimethylamino)quinazolin-2-yl]amino}cyclohexyl)methyl]-N′-(2,3-dimethylphenyl)urea], the class is given as 1 (Class 1: The value of percent of control at 10^−7 M was less than 40% or the value of IC50 was less than 50 nM.).
The same measure for `CCOC(=O)CNC(=O)NC[C@H]1CC[C@@H](Nc2nc(N(C)C)c3ccccc3n2)CC1` [compound 429]: 3 (Class 3: The value of percent of control at 10^−7 M was more than 60% or the value of IC50 was more than 200 nM.); for `CCOC(=O)c1cccc(NC(=O)NC[C@H]2CC[C@@H](Nc3nc(N(C)C)c4ccccc4n3)CC2)c1` [compound 430]: 3 (Class 3: The value of percent of control at 10^−7 M was more than 60% or the value of IC50 was more than 200 nM.); for `CCOC(=O)c1ccc(NC(=O)NC[C@H]2CC[C@@H](Nc3nc(N(C)C)c4ccccc4n3)CC2)cc1` [compound 431]: 3 (Class 3: The value of percent of control at 10^−7 M was more than 60% or the value of IC50 was more than 200 nM.).
The same measure for `CCc1ccc(NC(=O)NC[C@H]2CC[C@@H](Nc3nc(N(C)C)c4ccccc4n3)CC2)cc1` [compound 432, N-[(cis-4-{[4-(dimethylamino)quinazolin-2-yl]amino}cyclohexyl)methyl]-N′-(4-ethylphenyl)urea]: 2 (Class 2: The value of percent of control at 10^−7 M was from 40% to 60% or the value of IC50 was from 50 nM to 200 nM.); for `CCNC(=O)NC[C@H]1CC[C@@H](Nc2nc(N(C)C)c3ccccc3n2)CC1` [compound 433]: 3 (Class 3: The value of percent of control at 10^−7 M was more than 60% or the value of IC50 was more than 200 nM.); for `CCc1cccc(C)c1NC(=O)NC[C@H]1CC[C@@H](Nc2nc(N(C)C)c3ccccc3n2)CC1` [compound 434, N-[(cis-4-{[4-(dimethylamino)quinazolin-2-yl]amino}cyclohexyl)methyl]-N′-(2-ethyl-6-methylphenyl)urea]: 1 (Class 1: The value of percent of control at 10^−7 M was less than 40% or the value of IC50 was less than 50 nM.).
The same measure for `CN(C)c1nc(N[C@H]2CC[C@@H](CNC(=O)Nc3ccc(F)c([N+](=O)[O-])c3)CC2)nc2ccccc12` [compound 436]: 3 (Class 3: The value of percent of control at 10^−7 M was more than 60% or the value of IC50 was more than 200 nM.); for `CN(C)c1nc(N[C@H]2CC[C@@H](CNC(=O)Nc3ccc(F)cc3)CC2)nc2ccccc12` [compound 437, N-[(cis-4-{[4-(dimethylamino)quinazolin-2-yl]amino}cyclohexyl)methyl]-N′-(4-fluorophenyl)urea]: 1 (Class 1: The value of percent of control at 10^−7 M was less than 40% or the value of IC50 was less than 50 nM.); for `CN(C)c1nc(N[C@H]2CC[C@@H](CNC(=O)Nc3cccc(F)c3)CC2)nc2ccccc12` [compound 438, N-[(cis-4-{[4-(dimethylamino)quinazolin-2-yl]amino}cyclohexyl)methyl]-N′-(3-fluorophenyl)urea]: 2 (Class 2: The value of percent of control at 10^−7 M was from 40% to 60% or the value of IC50 was from 50 nM to 200 nM.).
For `CN(C)c1nc(N[C@H]2CC[C@@H](CNC(=O)Nc3ccccc3F)CC2)nc2ccccc12` [compound 439, N-[(cis-4-{[4-(dimethylamino)quinazolin-2-yl]amino}cyclohexyl)methyl]-N′-(2-fluorophenyl)urea], the class was 2 (Class 2: The value of percent of control at 10^−7 M was from 40% to 60% or the value of IC50 was from 50 nM to 200 nM.).
The value for `CC(C)c1ccc(NC(=O)NC[C@H]2CC[C@@H](Nc3nc(N(C)C)c4ccccc4n3)CC2)cc1` [compound 440] was 3 (Class 3: The value of percent of control at 10^−7 M was more than 60% or the value of IC50 was more than 200 nM.); that for `C=C(C)c1cccc(C(C)(C)NC(=O)NC[C@H]2CC[C@@H](Nc3nc(N(C)C)c4ccccc4n3)CC2)c1` [compound 441] was 2 (Class 2: The value of percent of control at 10^−7 M was from 40% to 60% or the value of IC50 was from 50 nM to 200 nM.); that for `CC(C)NC(=O)NC[C@H]1CC[C@@H](Nc2nc(N(C)C)c3ccccc3n2)CC1` [compound 443] was 3 (Class 3: The value of percent of control at 10^−7 M was more than 60% or the value of IC50 was more than 200 nM.).
The same measure for `COc1ccc(NC(=O)NC[C@H]2CC[C@@H](Nc3nc(N(C)C)c4ccccc4n3)CC2)cc1` [compound 444, N-[(cis-4-{[4-(dimethylamino)quinazolin-2-yl]amino}cyclohexyl)methyl]-N′-(4-methoxyphenyl)urea]: 2 (Class 2: The value of percent of control at 10^−7 M was from 40% to 60% or the value of IC50 was from 50 nM to 200 nM.).
The same measure for `Cc1ccc(NC(=O)NC[C@H]2CC[C@@H](Nc3nc(N(C)C)c4ccccc4n3)CC2)c([N+](=O)[O-])c1` [compound 445, N-[(cis-4-{[4-(dimethylamino)quinazolin-2-yl]amino}cyclohexyl)methyl]-N′-(4-methyl-2-nitrophenyl)urea]: 2 (Class 2: The value of percent of control at 10^−7 M was from 40% to 60% or the value of IC50 was from 50 nM to 200 nM.).
Turning to `COc1ccccc1NC(=O)NC[C@H]1CC[C@@H](Nc2nc(N(C)C)c3ccccc3n2)CC1` [compound 446, N-[(cis-4-{[4-(dimethylamino)quinazolin-2-yl]amino}cyclohexyl)methyl]-N′-(2-methoxyphenyl)urea], the class was 2 (Class 2: The value of percent of control at 10^−7 M was from 40% to 60% or the value of IC50 was from 50 nM to 200 nM.).
Turning to `COc1cccc(NC(=O)NC[C@H]2CC[C@@H](Nc3nc(N(C)C)c4ccccc4n3)CC2)c1` [compound 447, N-[(cis-4-{[4-(dimethylamino)quinazolin-2-yl]amino}cyclohexyl)methyl]-N′-(3-methoxyphenyl)urea], the class is given as 2 (Class 2: The value of percent of control at 10^−7 M was from 40% to 60% or the value of IC50 was from 50 nM to 200 nM.).
The value for `CSc1ccc(NC(=O)NC[C@H]2CC[C@@H](Nc3nc(N(C)C)c4ccccc4n3)CC2)cc1` [compound 448, N-[(cis-4-{[4-(dimethylamino)quinazolin-2-yl]amino}cyclohexyl)methyl]-N′-[4-(methylthio)phenyl]urea] was 1 (Class 1: The value of percent of control at 10^−7 M was less than 40% or the value of IC50 was less than 50 nM.).
